The subject of one assay is Mus musculus. In words: Neuroprotective activity in haloperidol-induced catalepsy Mus musculus Swiss albino (mouse) model assessed as mean descent time at 100 mg/kg, po administered 30 min before haloperidol challenge measured at 90 min post challenge. Format: functional.
Settings: not given
For `COc1ccccc1NC(=O)Nc1nc2c(ccc3ccccc32)s1`, the Time came to 43 s.
The same measure, in the same setting: with `O=C(CCCN1CCC(O)(c2ccc(Cl)cc2)CC1)c1ccc(F)cc1` [HALOPERIDOL] the figure was 268 s; with `COc1ccccc1NC(=S)Nc1nc2c(ccc3ccccc32)s1`, 65 s.
In the case of `COc1ccc(NC(=O)Nc2nc3c(ccc4ccccc43)s2)c(OC)c1`, the Time came out at 39 s.
For `O=C(Nc1nc2c(ccc3ccccc32)s1)Nc1ccccc1[N+](=O)[O-]`, the Time worked out at 57 s.
The same measure, in the same setting: with `O=[N+]([O-])c1ccccc1NC(=S)Nc1nc2c(ccc3ccccc32)s1` the figure was 71 s.
Turning to `COc1ccc(NC(=S)Nc2nc3c(ccc4ccccc43)s2)cc1`, the Time was 116 s.

The next assay concerns Mus musculus. Kind of assay: Neuroprotective activity in haloperidol-induced catalepsy Mus musculus Swiss albino (mouse) model assessed as Cu-Zn-SOD activity per gram protein in brain homogenate at 100 mg/kg, po administered 30 min before haloperidol challenge measured after 4 hr post challenge by NBT reduction assay (reference value: 1.794 +/- 0.03 U/g protein).
Settings: not given
Format: functional.
On to `COc1ccccc1NC(=O)Nc1nc2c(ccc3ccccc32)s1`, for which the Activity came to 1.622 U/g protein.
The same measure, in the same setting: as for `COc1ccccc1NC(=S)Nc1nc2c(ccc3ccccc32)s1`, the figure is 1.684 U/g protein; as for `COc1ccc(NC(=O)Nc2nc3c(ccc4ccccc43)s2)c(OC)c1`, 1.469 U/g protein; as for `O=[N+]([O-])c1ccccc1NC(=S)Nc1nc2c(ccc3ccccc32)s1`, 1.398 U/g protein.

The next assay deals with Mus musculus. Kind of assay: Neuroprotective activity in haloperidol-induced catalepsy Mus musculus Swiss albino (mouse) model assessed as mean cumulative descent time at 100 mg/kg, po administered 30 min before haloperidol challenge (reference value: 33 +/- 1.34 min). Format: functional.
Settings: not given
Take `COc1ccccc1NC(=O)Nc1nc2c(ccc3ccccc32)s1`: the Time was 6.43 min.
Consider `O=C(CCCN1CCC(O)(c2ccc(Cl)cc2)CC1)c1ccc(F)cc1` [HALOPERIDOL], for which the Time stood at 26 min.
The same measure, in the same setting: with `COc1ccccc1NC(=S)Nc1nc2c(ccc3ccccc32)s1` the figure was 6.8 min; with `COc1ccc(NC(=O)Nc2nc3c(ccc4ccccc43)s2)c(OC)c1`, 6.92 min.
For `O=C(Nc1nc2c(ccc3ccccc32)s1)Nc1ccccc1[N+](=O)[O-]`, the Time turned out to be 7.67 min.
For the compound `O=[N+]([O-])c1ccccc1NC(=S)Nc1nc2c(ccc3ccccc32)s1`, the Time is 7.43 min.
Still for that read-out and setting: with `COc1ccc(NC(=S)Nc2nc3c(ccc4ccccc43)s2)cc1` the figure was 11.2 min.

The test system of a further assay is Mus musculus. Kind of assay: Neuroprotective activity in haloperidol-induced catalepsy Mus musculus Swiss albino (mouse) model assessed as mean descent time at 100 mg/kg, po administered 30 min before haloperidol challenge measured at 30 min post challenge. Format: functional.
Settings: not given
Turning to `COc1ccccc1NC(=O)Nc1nc2c(ccc3ccccc32)s1`, the Time amounted to 11 s.
On to `O=C(CCCN1CCC(O)(c2ccc(Cl)cc2)CC1)c1ccc(F)cc1` [HALOPERIDOL], for which the Time amounted to 176 s.
On the same count and under the same terms, with `COc1ccccc1NC(=S)Nc1nc2c(ccc3ccccc32)s1` the figure was 19 s.
On the same count and under the same terms, with `COc1ccc(NC(=O)Nc2nc3c(ccc4ccccc43)s2)c(OC)c1` the figure was 32 s; with `O=C(Nc1nc2c(ccc3ccccc32)s1)Nc1ccccc1[N+](=O)[O-]`, 19 s.
Take `O=[N+]([O-])c1ccccc1NC(=S)Nc1nc2c(ccc3ccccc32)s1`: the Time was 20 s.
With `COc1ccc(NC(=S)Nc2nc3c(ccc4ccccc43)s2)cc1`, the Time came to 44 s.

A further assay relates to Mus musculus. In words: Neuroprotective activity in haloperidol-induced catalepsy Mus musculus Swiss albino (mouse) model assessed as GSH-Px activity per mg protein in brain homogenate at 100 mg/kg, po administered 30 min before haloperidol challenge measured after 4 hr post challenge by spectrophotometry (reference value: 2.129 +/- 0.06 U/mg protein). Format: functional.
Settings: not given
As for `COc1ccccc1NC(=O)Nc1nc2c(ccc3ccccc32)s1`, the Activity was found to be 1.83 U/mg.
On the same count and under the same terms, as for `O=C(CCCN1CCC(O)(c2ccc(Cl)cc2)CC1)c1ccc(F)cc1` [HALOPERIDOL], the figure is 1.14 U/mg; as for `COc1ccccc1NC(=S)Nc1nc2c(ccc3ccccc32)s1`, 2.1 U/mg; as for `COc1ccc(NC(=O)Nc2nc3c(ccc4ccccc43)s2)c(OC)c1`, 1.61 U/mg.
Still for that read-out and setting: with `O=[N+]([O-])c1ccccc1NC(=S)Nc1nc2c(ccc3ccccc32)s1` the figure was 1.77 U/mg.

A further assay deals with Mus musculus. In words: Neuroprotective activity in haloperidol-induced catalepsy Mus musculus Swiss albino (mouse) model assessed as mean descent time at 100 mg/kg, po administered 30 min before haloperidol challenge measured at 150 min post challenge.
Settings: not given
Format: functional.
As to `COc1ccccc1NC(=O)Nc1nc2c(ccc3ccccc32)s1`, the Time is 109 s.
As to `O=C(CCCN1CCC(O)(c2ccc(Cl)cc2)CC1)c1ccc(F)cc1` [HALOPERIDOL], the Time was determined as 300 s.
Still for that read-out and setting: with `COc1ccccc1NC(=S)Nc1nc2c(ccc3ccccc32)s1` the figure was 98 s; with `COc1ccc(NC(=O)Nc2nc3c(ccc4ccccc43)s2)c(OC)c1`, 120 s.
Same read-out and setting: with `O=C(Nc1nc2c(ccc3ccccc32)s1)Nc1ccccc1[N+](=O)[O-]` the figure was 98 s; with `O=[N+]([O-])c1ccccc1NC(=S)Nc1nc2c(ccc3ccccc32)s1`, 109 s.
Same read-out and setting: as for `COc1ccc(NC(=S)Nc2nc3c(ccc4ccccc43)s2)cc1`, the figure is 129 s.

Another assay relates to Mus musculus. In words: Neuroprotective activity in haloperidol-induced catalepsy Mus musculus Swiss albino (mouse) model assessed as inhibition of MDA equivalent TBARS release per mg protein in brain homogenate at 100 mg/kg, po administered 30 min before haloperidol challenge measured after 4 hr post challenge by spectrophotometry (reference value: 1.157 +/- 0.06 nmol/mg protein). Format: functional.
Settings: not given
Consider `COc1ccccc1NC(=O)Nc1nc2c(ccc3ccccc32)s1`, for which the Activity is recorded as 2.504 nmol/mg protein.
On the same count and under the same terms, as for `COc1ccccc1NC(=S)Nc1nc2c(ccc3ccccc32)s1`, the figure is 2.045 nmol/mg protein.
For `COc1ccc(NC(=O)Nc2nc3c(ccc4ccccc43)s2)c(OC)c1`, the Activity was determined as 2.706 nmol/mg protein.
Still for that read-out and setting: as for `O=[N+]([O-])c1ccccc1NC(=S)Nc1nc2c(ccc3ccccc32)s1`, the figure is 3.226 nmol/mg protein.

For another assay, the system named is Mus musculus. In words: Neuroprotective activity in haloperidol-induced catalepsy Mus musculus Swiss albino (mouse) model assessed as mean descent time at 100 mg/kg, po administered 30 min before haloperidol challenge measured at 120 min post challenge. Format: functional.
Settings: not given
In the case of `COc1ccccc1NC(=O)Nc1nc2c(ccc3ccccc32)s1`, the Time was 87 s.
Regarding `O=C(CCCN1CCC(O)(c2ccc(Cl)cc2)CC1)c1ccc(F)cc1` [HALOPERIDOL], the Time is 300 s.
As to `COc1ccccc1NC(=S)Nc1nc2c(ccc3ccccc32)s1`, the Time turned out to be 87 s.
Same read-out and setting: as for `COc1ccc(NC(=O)Nc2nc3c(ccc4ccccc43)s2)c(OC)c1`, the figure is 68 s.
Same read-out and setting: as for `O=C(Nc1nc2c(ccc3ccccc32)s1)Nc1ccccc1[N+](=O)[O-]`, the figure is 87 s; as for `O=[N+]([O-])c1ccccc1NC(=S)Nc1nc2c(ccc3ccccc32)s1`, 88 s; as for `COc1ccc(NC(=S)Nc2nc3c(ccc4ccccc43)s2)cc1`, 128 s.

The next assay concerns Mus musculus. In words: Neuroprotective activity in Mus musculus Swiss albino (mouse) model assessed as reduction in haloperidol-induced catalepsy at 100 mg/kg, ip administered 30 min before haloperidol challenge measured for 30 to 180 min. Format: functional. Set-up: scale not given: the % may be the effect or the level left. The following applies: route intraperitoneal.
For the compound `COc1ccccc1NC(=O)Nc1nc2c(ccc3ccccc32)s1`, the Activity is 76.9%.
With `COc1ccccc1NC(=S)Nc1nc2c(ccc3ccccc32)s1`, the Activity is recorded as 75.46%.
Same read-out and setting: as for `COc1ccc(NC(=O)Nc2nc3c(ccc4ccccc43)s2)c(OC)c1`, the figure is 75%; as for `O=C(Nc1nc2c(ccc3ccccc32)s1)Nc1ccccc1[N+](=O)[O-]`, 72.05%; as for `O=[N+]([O-])c1ccccc1NC(=S)Nc1nc2c(ccc3ccccc32)s1`, 72.97%.
Turning to `COc1ccc(NC(=S)Nc2nc3c(ccc4ccccc43)s2)cc1`, the Activity is 58.05%.

The test system of a further assay is Mus musculus. In words: Neuroprotective activity in haloperidol-induced catalepsy Mus musculus Swiss albino (mouse) model assessed as GSH level per gram of brain tissue at 100 mg/kg, po administered 30 min before haloperidol challenge measured after 4 hr post challenge by spectrophotometry (reference value: 23.45 +/- 0.23 ug/g tissue). Format: functional.
Settings: not given
As for `COc1ccccc1NC(=O)Nc1nc2c(ccc3ccccc32)s1`, the Activity worked out at 16.8 µg/g.
As for `O=C(CCCN1CCC(O)(c2ccc(Cl)cc2)CC1)c1ccc(F)cc1` [HALOPERIDOL], the Activity stood at 6.85 µg/g.
For the compound `COc1ccccc1NC(=S)Nc1nc2c(ccc3ccccc32)s1`, the Activity stood at 13.1 µg/g.
Same read-out and setting: as for `COc1ccc(NC(=O)Nc2nc3c(ccc4ccccc43)s2)c(OC)c1`, the figure is 13.6 µg/g; as for `O=[N+]([O-])c1ccccc1NC(=S)Nc1nc2c(ccc3ccccc32)s1`, 12.5 µg/g.

In another assay the test system is Mus musculus. Kind of assay: Neuroprotective activity in haloperidol-induced catalepsy Mus musculus Swiss albino (mouse) model assessed as mean descent time at 100 mg/kg, po administered 30 min before haloperidol challenge measured at 60 min post challenge. Format: functional.
Settings: not given
As for `COc1ccccc1NC(=O)Nc1nc2c(ccc3ccccc32)s1`, the Time was found to be 28 s.
On the same count and under the same terms, as for `O=C(CCCN1CCC(O)(c2ccc(Cl)cc2)CC1)c1ccc(F)cc1` [HALOPERIDOL], the figure is 217 s.
Consider `COc1ccccc1NC(=S)Nc1nc2c(ccc3ccccc32)s1`, for which the Time was 44 s.
On the same count and under the same terms, as for `COc1ccc(NC(=O)Nc2nc3c(ccc4ccccc43)s2)c(OC)c1`, the figure is 35 s; as for `O=C(Nc1nc2c(ccc3ccccc32)s1)Nc1ccccc1[N+](=O)[O-]`, 54 s; as for `O=[N+]([O-])c1ccccc1NC(=S)Nc1nc2c(ccc3ccccc32)s1`, 36 s.
The same measure, in the same setting: with `COc1ccc(NC(=S)Nc2nc3c(ccc4ccccc43)s2)cc1` the figure was 112 s.

The subject of another assay is Mus musculus. In words: Neuroprotective activity in haloperidol-induced catalepsy Mus musculus Swiss albino (mouse) model assessed as mean descent time at 100 mg/kg, po administered 30 min before haloperidol challenge measured at 180 min post challenge.
Settings: not given
Format: functional.
Regarding `COc1ccccc1NC(=O)Nc1nc2c(ccc3ccccc32)s1`, the Time amounted to 108 s.
Same read-out and setting: as for `O=C(CCCN1CCC(O)(c2ccc(Cl)cc2)CC1)c1ccc(F)cc1` [HALOPERIDOL], the figure is 300 s; as for `COc1ccccc1NC(=S)Nc1nc2c(ccc3ccccc32)s1`, 95 s.
The same measure, in the same setting: with `COc1ccc(NC(=O)Nc2nc3c(ccc4ccccc43)s2)c(OC)c1` the figure was 121 s; with `O=C(Nc1nc2c(ccc3ccccc32)s1)Nc1ccccc1[N+](=O)[O-]`, 145 s; with `O=[N+]([O-])c1ccccc1NC(=S)Nc1nc2c(ccc3ccccc32)s1`, 122 s.
Still for that read-out and setting: with `COc1ccc(NC(=S)Nc2nc3c(ccc4ccccc43)s2)cc1` the figure was 145 s.

Values taken from ChEMBL document CHEMBL3045060, “Synthesis of some urea and thiourea derivatives of naphtha[1,2-d]thiazol-2-amine as anti-Parkinsonian agents that cause neuroprotection against haloperidol-induced oxidative stress in mice” (2009).
